Test results as given in ChEMBL document CHEMBL4813945, “Discovery and development of novel pyrimidine and pyrazolo/thieno-fused pyrimidine derivatives as potent and orally active inducible nitric oxide synthase dimerization inhibitor with efficacy for arthritis” (Eur J Med Chem, 2021).

Tests used:
[1] = test system: RAW264.7; assay: Antiinflammatory activity against mouse RAW264.7 cells assessed as inhibition of LPS-induced NO production at 10 uM preincubated for 1 hrs followed by LPS stimulation and measured after 24 hrs by Griess assay relative to control; assay type: functional; conditions: time 25 hrs
[2] = test system: L02; assay: Antiinflammatory activity against human L02 assessed as inhibition of LPS-induced NO production preincubated for 1 hrs followed by LPS stimulation and measured after 24 hrs by Griess assay relative to control; assay type: functional, cell-based
[3] = test system: RAW264.7; assay: Cytotoxicity against mouse RAW264.7 cells at 20 uM measured after 24 hrs; assay type: cell-based; conditions: raw264.7, 24 h

| Structure (SMILES) | inhibition at 10 µM [1] [%] | IC50 [2] [µM] | Activity [3] |
| --- | --- | --- | --- |
| CCCc1nn(C)c2c(NCCc3ccccc3)nc(/C=C/c3nc(C)c(C)nc3C)nc12 | 52.7 | < 40 | Non-Toxic |
| CCCc1nn(C)c2c(NCCc3ccccc3)nc(/C=C/c3ccc[n+]([O-])c3)nc12 | 72.9 | 392 | Non-Toxic |
| CCCc1nn(C)c2c(N3CCS(=O)(=O)CC3)nc(/C=C/c3ccc[n+]([O-])c3)nc12 | 3.13 | > 1000 | Non-Toxic |
| Brc1ccc(CNc2nc(/C=C/c3ccccc3)nc3ccsc23)cc1 | 19.5 | > 1000 | Non-Toxic |
| COc1cc(/C=C/c2nc(Nc3ccc(C(C)C)cc3)c3sccc3n2)cc(OC)c1OC | 13.3 | 370 | Non-Toxic |
| Fc1ccccc1CCNc1nc(/C=C/c2ccccc2)nc2ccsc12 | 29.8 | > 1000 | Non-Toxic |
| COc1cc(/C=C/c2nc(O)nc(NCCc3ccccc3)n2)cc(OC)c1OC | 57 | < 40 | Non-Toxic |
| CCCc1nn(C)c2c(NC3CC3)nc(/C=C/c3nc(C)c(C)nc3C)nc12 | 48.4 | 706 | Non-Toxic |
| COc1cc(/C=C/c2nc(NCc3ccccc3Cl)c3sccc3n2)cc(OC)c1OC | 21.9 | > 1000 | Non-Toxic |
| COc1cc(/C=C/c2nc(NCCc3ccccc3)c3sccc3n2)cc(OC)c1OC | 46.2 | < 40 | Non-Toxic |
| CCCc1nn(C)c2c(NC3CC3)nc(/C=C/c3ccc[n+]([O-])c3)nc12 | 29.2 | 580 | Non-Toxic |
| CCCc1nn(C)c2c(NCCc3ccccc3)nc(CCc3cccnc3)nc12 | 36.5 | 783 | Non-Toxic |
| CCCc1nn(C)c2c(NC(C)C)nc(/C=C/c3nc(C)c(C)nc3C)nc12 | 54.8 | 342 | Non-Toxic |
| Brc1cccc(Nc2nc(/C=C/c3ccccc3)nc3ccsc23)c1 | 28.8 | > 1000 | Non-Toxic |
| CCCc1nn(C)c2c(NCc3ccc(F)cc3)nc(/C=C/c3cccnc3)nc12 | 61.3 | 940 | Non-Toxic |
| CC(C)CNc1nc(/C=C/c2ccccc2)nc2ccsc12 | 25 | > 1000 | Non-Toxic |
| CCCc1nn(C)c2c(N3CCOCC3)nc(/C=C/c3nc(C)c(C)nc3C)nc12 | 74.2 | 370 | Non-Toxic |
| COc1cc(/C=C/c2nccc(NCCc3ccc(F)cc3)n2)cc(OC)c1OC | 47 | 544 | Non-Toxic |
| Clc1ccccc1CNc1nc(/C=C/c2ccccc2)nc2ccsc12 | 35.2 | > 1000 | Non-Toxic |
| CCCc1nn(C)c2c(NCCc3ccccc3)nc(/C=C/c3cccnc3)nc12 | 77.4 | > 1000 | Non-Toxic |
| CCCc1nn(C)c2c(NC3CC3)nc(CCc3cccnc3)nc12 | 7.29 | 564 | Non-Toxic |

| Structure (SMILES) | inhibition at 10 µM [1] [%] | IC50 [2] [µM] | Activity [3] |
| --- | --- | --- | --- |
| COc1cc(/C=C/c2nc(N3CCCC3)c3sccc3n2)cc(OC)c1OC | 33.2 | 681 | Non-Toxic |
| Fc1ccc(CNc2nc(/C=C/c3ccccc3)nc3ccsc23)cc1 | 23.4 | > 1000 | Non-Toxic |
| CN(C)c1nc(/C=C/c2ccccc2)nc2ccsc12 | 3.57 | > 1000 | Non-Toxic |
| CN(c1ccccc1)c1nc(/C=C/c2ccccc2)nc2ccsc12 | 24.9 | > 1000 | Non-Toxic |
| CCN1CCN(c2nc(/C=C/c3cc(OC)c(OC)c(OC)c3)nc3ccsc23)CC1 | 46.7 | > 1000 | Non-Toxic |
| Fc1ccc(CNc2nc(/C=C/c3ccco3)nc3ccsc23)cc1 | 59.2 | > 1000 | Non-Toxic |
| COc1cc(/C=C/c2nc(NC(C)C)c3sccc3n2)cc(OC)c1OC | 59.1 | > 1000 | Non-Toxic |
| CCCc1nn(C)c2c(N3CCS(=O)(=O)CC3)nc(/C=C/c3nc(C)c(C)nc3C)nc12 | 51.6 | < 40 | Non-Toxic |
| C(=C\c1nc(N2CCOCC2)c2sccc2n1)/c1ccccc1 | 34.1 | > 1000 | Non-Toxic |
| COc1cc(/C=C/c2nc(NCCc3ccc(F)cc3)c3sccc3n2)cc(OC)c1OC | 26.9 | < 40 | Non-Toxic |
| CNc1nc(/C=C/c2cc(OC)c(OC)c(OC)c2)nc2ccsc12 | 39.5 | > 1000 | Non-Toxic |
| COc1cc(/C=C/c2nc(Cl)cc(NCCc3ccccc3)n2)cc(OC)c1OC | 31.2 | < 40 | Non-Toxic |
| COc1cc(/C=C/c2nc(OCc3ccccc3)c3sccc3n2)cc(OC)c1OC | 33.8 | > 1000 | Non-Toxic |
| CCCc1nn(C)c2c(NCc3ccc(F)cc3)nc(/C=C/c3ccc[n+]([O-])c3)nc12 | 64.6 | < 40 | Non-Toxic |
| CCCc1nn(C)c2c(N3CCOCC3)nc(CCc3cccnc3)nc12 | 27.1 | 859 | Non-Toxic |
| CCCCNc1nc(/C=C/c2ccccc2)nc2ccsc12 | 22.4 | > 1000 | Non-Toxic |
| CCCc1nn(C)c2c(NCc3ccc(F)cc3)nc(CCc3cccnc3)nc12 | 18.8 | < 40 | Non-Toxic |
| CCCc1nn(C)c2c(NC(C)C)nc(/C=C/c3ccc[n+]([O-])c3)nc12 | 45.8 | 324 | Non-Toxic |
| COc1cc(/C=C/c2nc(NCc3ccco3)c3sccc3n2)cc(OC)c1OC | 46.5 | 189 | Non-Toxic |
| CCCc1nn(C)c2c(NC(C)C)nc(/C=C/c3cccnc3)nc12 | 74.2 | 574 | Non-Toxic |
| C(=C\c1ccco1)/c1nc(NCc2ccccc2)c2sccc2n1 | 64.1 | > 1000 | Non-Toxic |

| Structure (SMILES) | inhibition at 10 µM [1] [%] | IC50 [2] [µM] | Activity [3] |
| --- | --- | --- | --- |
| CCCc1nn(C)c2c(NCc3ccc(F)cc3)nc(/C=C/c3nc(C)c(C)nc3C)nc12 | 63.4 | > 1000 | Non-Toxic |
| CCCc1nn(C)c2c(N3CCS(=O)(=O)CC3)nc(CCc3cccnc3)nc12 | 15.6 | > 1000 | Non-Toxic |
| Fc1ccccc1CNc1nc(/C=C/c2ccco2)nc2ccsc12 | 11.7 | > 1000 | Non-Toxic |
| COc1cc(/C=C/c2nc(N3CCOCC3)c3sccc3n2)cc(OC)c1OC | 12.2 | > 1000 | Non-Toxic |
| COc1cc(/C=C/c2nc(Cl)cc(NCCc3ccc(F)cc3)n2)cc(OC)c1OC | 55.9 | < 40 | Non-Toxic |
| C(=C\c1ccco1)/c1nc(N2CCOCC2)c2sccc2n1 | 28.1 | > 1000 | Non-Toxic |
| FC(F)(F)c1ccc(Nc2nc(/C=C/c3ccccc3)nc3ccsc23)cc1 | 30.1 | > 1000 | Non-Toxic |
| COc1cc(/C=C/c2nc(O)nc(NCCc3ccc(F)cc3)n2)cc(OC)c1OC | 36.5 | 483 | Non-Toxic |
| CCCc1nn(C)c2c(NCCc3cccc(Cl)c3)nc(/C=C/c3nc(C)c(C)nc3C)nc12 | 68.8 | 786 | Non-Toxic |
| CN1CCN(c2nc(/C=C/c3ccco3)nc3ccsc23)CC1 | 43.9 | > 1000 | Non-Toxic |
| CCCc1nn(C)c2c(NC3CC3)nc(/C=C/c3cccnc3)nc12 | 49.5 | 261 | Non-Toxic |
| CCCc1nn(C)c2c(N3CCS(=O)(=O)CC3)nc(/C=C/c3cccnc3)nc12 | 60.2 | 472 | Non-Toxic |
| Clc1ccc(CNc2nc(/C=C/c3ccco3)nc3ccsc23)cc1 | 13 | > 1000 | Non-Toxic |
| Fc1ccc(CCNc2nc(/C=C/c3ccccc3)nc3ccsc23)cc1 | 29.8 | > 1000 | Non-Toxic |
| COc1cccc(CNc2nc(/C=C/c3ccccc3)nc3ccsc23)c1 | 30.7 | > 1000 | Non-Toxic |
| CCCc1nn(C)c2c(NC(C)C)nc(CCc3cccnc3)nc12 | 30.2 | 514 | Non-Toxic |
| COc1cc(/C=C/c2nc(N(C)c3ccccc3)c3sccc3n2)cc(OC)c1OC | 32.5 | 767 | Non-Toxic |
| CNc1nc(/C=C/c2ccco2)nc2ccsc12 | 29.1 | 811 | Non-Toxic |
| CC(C)Nc1nc(/C=C/c2ccccc2)nc2ccsc12 | 22.9 | > 1000 | Non-Toxic |
| COc1cc(/C=C/c2nc(Cl)cc(NC(C)C)n2)cc(OC)c1OC | 29 | < 40 | Non-Toxic |
| COc1cc(/C=C/c2nccc(NC(C)C)n2)cc(OC)c1OC | 61 | < 40 | Non-Toxic |
